Assay results published in BigSolDB 2.1.

Nc1c([N+](=O)[O-])c2no[n+]([O-])c2c2no[n+]([O-])c12
solubility (mole fraction)
Conditions | 288.15 K | 293.15 K | 298.15 K | 303.15 K | 308.15 K | 313.15 K | 318.15 K | 323.15 K | 328.15 K | 333.15 K
in 1,2-dichloroethane | 2.98e-05 | 3.64e-05 | 4.41e-05 | 5.31e-05 | 6.32e-05 | 7.49e-05 | 8.9e-05 | 0.000105 | 0.000122 | 0.000142
in DMF | 0.00618 | 0.00747 | 0.00896 | 0.0107 | 0.0126 | 0.0149 | 0.0175 | 0.0204 | 0.0236 | 0.0273
in DMSO | – | 0.0118 | 0.0138 | 0.0161 | 0.0187 | 0.0217 | 0.0249 | 0.0286 | 0.0327 | 0.0373
in NMP | 0.00799 | 0.00948 | 0.0112 | 0.0131 | 0.0153 | 0.0178 | 0.0206 | 0.0237 | 0.0272 | 0.031
in acetic acid | – | 7.86e-05 | 9.36e-05 | 0.000112 | 0.000131 | 0.000154 | 0.000178 | 0.000206 | 0.000237 | 0.000271
in acetone | 0.000797 | 0.00087 | 0.000968 | 0.00109 | 0.00123 | 0.00137 | 0.00154 | 0.00174 | – | –
in acetonitrile | 0.000322 | 0.000374 | 0.000434 | 0.000497 | 0.00057 | 0.000654 | 0.000744 | 0.000845 | 0.000956 | 0.00108
in cyclohexanone | 0.0018 | 0.00198 | 0.00218 | 0.0024 | 0.00266 | 0.00295 | 0.00328 | 0.00366 | 0.00409 | 0.00457
in dichloromethane | 1.37e-05 | 1.73e-05 | 2.15e-05 | 2.68e-05 | 3.31e-05 | – | – | – | – | –
in ethanol | 6.85e-06 | 8.94e-06 | 1.18e-05 | 1.52e-05 | 1.95e-05 | 2.47e-05 | 3.14e-05 | 3.94e-05 | 4.92e-05 | 6.02e-05
in ethyl acetate | 0.000211 | 0.000244 | 0.00028 | 0.000321 | 0.000367 | 0.000419 | 0.000475 | 0.000536 | 0.000605 | 0.000681
in methanol | 1.44e-05 | 1.88e-05 | 2.42e-05 | 3.14e-05 | 4.01e-05 | 5.01e-05 | 6.33e-05 | 7.91e-05 | 9.73e-05 | 0.000121
in o-xylene | 2.4e-05 | 3.15e-05 | 4.14e-05 | 5.34e-05 | 6.87e-05 | 8.74e-05 | 0.000109 | 0.000137 | 0.000169 | 0.000208
in propionic acid | 1.94e-05 | 2.45e-05 | 3.15e-05 | 3.97e-05 | 4.97e-05 | 6.16e-05 | 7.63e-05 | 9.37e-05 | 0.000114 | 0.00014
in toluene | 1.03e-05 | 1.34e-05 | 1.84e-05 | 2.45e-05 | 3.26e-05 | 4.29e-05 | 5.63e-05 | 7.28e-05 | 9.4e-05 | 0.00012
